molecular target: T1, human EP4 receptors (Homo sapiens, UniProt P35408); assay: cAMP assay in human EP4 transfectant; format: cell-based; details: HEK293 cells expressing human EP4 receptors; 1 nM PGE2, 0.2 mM IBMX, 37° C. for 10 min
T1 construct: expressed in transfected cells
Experimental: cAMP Assay in Human EP4 Transfectant HEK293 cells expressing human EP4 receptors (hEP4 cells) are maintained in DMEM containing 10% FBS and 500 μg/ml geneticin. For harvesting hEP4 cells, culture medium is aspirated and cells in 75 cm^2 flask are washed with 10 ml of phosphate buffered saline (PBS). Another 10 ml of PBS is added to the cells and incubated for 20 min at room temperature. Human EP4 cells are harvested by pipetting and centrifuged at 300×g for 4 min. Cells are resuspended in DMEM without neutral red at a density of 7×10^5 cells/ml containing 0.2 mM IBMX (PDE inhibitor), 1 nM PGE2 and test compounds in PCR-tubes, and incubated at 37° C. for 10 min. The reaction is stopped by heating at 100° C. for 10 min with thermal cycler. Concentration of cAMP in reaction mixtures is determined with SPA cAMP Kit (Amersham) or cAMP Screen™ (Applied Biosystems) according to the manufacture's instruction. Reference: Eur. J. Pharmacol. 340 (1997) 227-241 cAMP assay in human EP4 transfectant were conducted using the method described above. IC50: the concentration of the individual compound required to reduce the amount of ligand by 50%.

T1 sequence (P35408 whole entry): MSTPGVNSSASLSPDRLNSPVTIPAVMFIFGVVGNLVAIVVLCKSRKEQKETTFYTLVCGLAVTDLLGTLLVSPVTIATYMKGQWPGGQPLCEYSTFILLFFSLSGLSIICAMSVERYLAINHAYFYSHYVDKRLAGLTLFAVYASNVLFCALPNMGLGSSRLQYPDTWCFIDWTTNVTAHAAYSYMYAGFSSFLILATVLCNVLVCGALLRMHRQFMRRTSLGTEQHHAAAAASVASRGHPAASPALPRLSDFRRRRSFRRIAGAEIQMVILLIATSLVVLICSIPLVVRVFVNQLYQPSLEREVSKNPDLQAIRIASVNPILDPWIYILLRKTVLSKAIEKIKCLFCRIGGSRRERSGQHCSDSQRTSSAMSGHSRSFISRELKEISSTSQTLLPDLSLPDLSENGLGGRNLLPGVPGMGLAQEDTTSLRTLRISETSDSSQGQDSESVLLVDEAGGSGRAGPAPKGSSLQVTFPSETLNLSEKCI

| IC50 [nM] | SMILES |
| --- | --- |
| 25 | C[C@H](NC(=O)c1cc(Cl)cnc1N(C)Cc1ccc(Cl)cc1)c1ccc(C(=O)O)cc1 [EXAMPLE 51, 4-{(1S)-1-[({5-CHLORO-2-[(4-CHLOROBENZYL)(METHYL)AMINO]PYRIDIN-3-YL}CARBONYL)AMINO]ETHYL}BENZOIC ACID] |
| 260 | C[C@H](NC(=O)c1cc(Cl)ccc1O[C@H]1CC[C@H](C)CC1)c1ccc(C(=O)O)cc1 [EXAMPLE 18, 4-[(1S)-1-({5-CHLORO-2-[(TRANS-4-METHYLCYCLOHEXYL)OXY]BENZOYL}AMINO)ETHYL]BENZOIC ACID] |
| 65 | C[C@H](NC(=O)c1cc(Cl)ccc1OCc1ccc(Cl)cc1F)c1ccc(C(=O)O)cc1 [EXAMPLE 45, 4-[(1S)-1-({5-CHLORO-2-[(4-CHLORO-2-FLUOROBENZYL)OXY]BENZOYL}AMINO)ETHYL]BENZOIC ACID] |
| 480 | C[C@H](NC(=O)c1cc(Cl)ccc1OCc1ncccc1Cl)c1ccc(C(=O)O)cc1 [EXAMPLE 47, 4-[(1S)-1-({5-CHLORO-2-[(3-CHLOROPYRIDIN-2-YL)METHOXY]BENZOYL}AMINO)ETHYL]BENZOIC ACID] |
| 22 | C[C@H](NC(=O)c1cc(Cl)ccc1OCc1cccc(Cl)c1)c1ccc(C(=O)O)cc1 [EXAMPLE 23, 4-[(1S)-1-({5-CHLORO-2-[(3-CHLOROBENZYL)OXY]BENZOYL}AMINO)ETHYL]BENZOIC ACID] |
| 30 | C[C@H](NC(=O)c1cc(Cl)ccc1OCC1CCC1)c1ccc(C(=O)O)cc1 [EXAMPLE 29, 4-((1S)-1-{[5-CHLORO-2-(CYCLOBUTYLMETHOXY)BENZOYL]AMINO}ETHYL)BENZOIC ACID] |
| 62 | Cc1ccccc1CCOc1ccc(Cl)cc1C(=O)NCc1ccc(C(=O)O)cc1 [EXAMPLE 7, 4-[({5-CHLORO-2-[2-(2-METHYLPHENYL)ETHOXY]BENZOYL}AMINO)METHYL]BENZOIC ACID] |
| 110 | C[C@H](NC(=O)c1cc(Cl)cnc1N(C)Cc1ccc(F)cc1)c1ccc(C(=O)O)cc1 [EXAMPLE 54, 4-{(1S)-1-[({5-CHLORO-2-[(4-FLUOROBENZYL)(METHYL)AMINO]PYRIDIN-3-YL}CARBONYL)AMINO]ETHYL}BENZOIC ACID] |
| 130 | Cc1cc(COc2ccc(Cl)cc2C(=O)N[C@@H](C)c2ccc(C(=O)O)cc2)no1 [EXAMPLE 44, 4-[(1S)-1-({5-CHLORO-2-[(5-METHYLISOXAZOL-3-YL)METHOXY]BENZOYL}AMINO)ETHYL]BENZOIC ACID] |
| 200 | CC(C)OCCOc1ccc(Cl)cc1C(=O)N[C@@H](C)c1ccc(C(=O)O)cc1 [EXAMPLE 21, 4-((1S)-1-{[5-CHLORO-2-(2-ISOPROPOXYETHOXY)BENZOYL]AMINO}ETHYL)BENZOIC ACID] |
| 140 | C[C@H](NC(=O)c1cc(Cl)ccc1OCc1cccc(F)c1)c1ccc(C(=O)O)cc1 [EXAMPLE 43, 4-[(1S)-1-({5-CHLORO-2-[(3-FLUOROBENZYL)OXY]BENZOYL}AMINO)ETHYL]BENZOIC ACID] |
| 108 | O=C(O)c1ccc(CNC(=O)c2cc(Cl)ccc2OCCc2ccccc2Cl)cc1 [EXAMPLE 2, 4-[({5-CHLORO-2-[2-(2-CHLOROPHENYL)ETHOXY]BENZOYL}AMINO)METHYL]BENZOIC ACID] |
| 210 | C[C@H](NC(=O)c1cc(Cl)ccc1OCCOc1ccc(F)cc1)c1ccc(C(=O)O)cc1 [EXAMPLE 28, 4-[(1S)-1-({5-CHLORO-2-[2-(4-FLUOROPHENOXY)ETHOXY]BENZOYL}AMINO)ETHYL]BENZOIC ACID] |
| 140 | COC(COc1ccc(Cl)cc1C(=O)N[C@@H](C)c1ccc(C(=O)O)cc1)c1ccccc1 (stereo partly drawn) [EXAMPLE 27, 4-((1S)-1-{[5-CHLORO-2-(2-METHOXY-2-PHENYLETHOXY)BENZOYL]AMINO}ETHYL)BENZOIC ACID] |
| 78 | C[C@H](NC(=O)c1cc(Cl)ccc1OCc1cc(F)cc(F)c1)c1ccc(C(=O)O)cc1 [EXAMPLE 37, 4-[(1S)-1-({5-CHLORO-2-[(3,5-DIFLUOROBENZYL)OXY]BENZOYL}AMINO)ETHYL]BENZOIC ACID] |
| 441 | O=C(O)c1ccc(CNC(=O)c2cc(Cl)ccc2OCc2ccc(Cl)cc2)cc1 [EXAMPLE 6, 4-[({5-CHLORO-2-[(4-CHLOROBENZYL)OXY]BENZOYL)AMINO)METHYL]BENZOIC ACID] |
| 20 | Cc1ccccc1CCOc1ccc(Cl)cc1C(=O)N[C@@H](C)c1ccc(C(=O)O)cc1 [EXAMPLE 11, 4-[(1S)-1-({5-CHLORO-2-[2-(2-METHYLPHENYL)ETHOXY]BENZOYL}AMINO)ETHYL]BENZOIC ACID] |
